Measured values: PubChem BioAssay (NCI)
Several values for one entry are separate records, joined by “and”; a condition that tells them apart may be missing. Equal entries are not always repeated.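 A five-concentration, 48-hour dose response in 96-well plates underlies each endpoint, interpolated linearly between surrounding concentrations. GI50: concentration for 50% inhibition of growth. TGI denotes the concentration required for complete inhibition of growth.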

Experiments:
Experiment in all cases: NCI anticancer screen, dose series, 48 h
HS 578T breast = tested on: HS 578T breast
MCF7 breast = tested on: MCF7 breast
MDA-MB-435 = tested on: MDA-MB-435
NCI/ADR-RES ovarian = tested on: NCI/ADR-RES ovarian
PC-3 prostate = tested on: PC-3 prostate

## COc1ccc2c(c1)c(-c1ccc(-c3cn(C)c4ccc(OC)cc34)o1)cn2C
HS 578T breast
  GI50: 4.2 µM
  TGI: 20.1 µM
MCF7 breast
  GI50: 17.3 µM
  TGI: > 100 µM
MDA-MB-435
  GI50: 32.9 µM
  TGI: > 100 µM
NCI/ADR-RES ovarian
  GI50: 3.86 µM
  TGI: 16.6 µM

## COc1cc2c(cc1OC)-c1ncc3cc(OC)c(OC)c(OC)c3c1C2
HS 578T breast
  GI50: 4.11 µM
  TGI: 27.2 µM
MDA-MB-435
  GI50: 16.2 µM
  TGI: 42.6 µM
NCI/ADR-RES ovarian
  GI50: 19.1 µM
  TGI: 89.2 µM
PC-3 prostate
  GI50: 17.1 µM
  TGI: > 100 µM

## CCC(=O)Nc1ncnc2ncn(C(=O)CC)c12
HS 578T breast
  TGI: > 100 µM
MCF7 breast
  TGI: > 100 µM
MDA-MB-435
  TGI: > 100 µM
NCI/ADR-RES ovarian
  TGI: > 100 µM
PC-3 prostate
  TGI: > 100 µM

## C=C1C(=O)O[C@H]2[C@H]1CC/C(Cn1cc(-c3ccsc3)nn1)=C\CC[C@@]1(C)O[C@@H]21
HS 578T breast
  GI50: 2.82 µM
  TGI: 16 µM
MDA-MB-435
  GI50: 1.85 µM
  TGI: 4.54 µM
NCI/ADR-RES ovarian
  GI50: 3.79 µM
  TGI: 16.9 µM
PC-3 prostate
  GI50: 4.21 µM
  TGI: 14.9 µM

## COc1cccc(NC(=O)c2ccc(NC3=C(Cl)C(=O)N(Cc4ccccc4)C3=O)cc2)c1
HS 578T breast
  GI50: 11.1 µM
  TGI: 30.9 µM
MCF7 breast
  GI50: 3.9 µM
  TGI: 17.8 µM
MDA-MB-435
  GI50: 10.6 µM
  TGI: 41.4 µM
NCI/ADR-RES ovarian
  GI50: 16.3 µM
  TGI: 29.8 µM
PC-3 prostate
  GI50: 13.1 µM
  TGI: 28.5 µM

## CCCCCCC(O)C(O)CCC(O)C1CCC(CCCCC(O)CC2=CC(C)OC2=O)O1 (stereo not given)
HS 578T breast
  TGI: 6.98 µM
MCF7 breast
  GI50: 10.1 µM
  TGI: 28 µM
MDA-MB-435
  TGI: 55.2 µM
NCI/ADR-RES ovarian
  GI50: 11 µM
  TGI: 7.03 µM and 29.3 µM
PC-3 prostate
  GI50: 13.1 µM
  TGI: 33.1 µM

## CCCC(=O)Nc1c(I)cc(I)c(CC(CC)C(=O)O)c1I (stereo not given)
HS 578T breast
  GI50: > 100 µM
  TGI: > 100 µM
MCF7 breast
  GI50: > 100 µM
  TGI: > 100 µM
MDA-MB-435
  GI50: > 100 µM
  TGI: > 100 µM
NCI/ADR-RES ovarian
  GI50: > 100 µM
  TGI: > 100 µM
PC-3 prostate
  GI50: > 100 µM
  TGI: > 100 µM

## C=C(C)[C@@H]1CC[C@]2(CN)CC[C@]3(C)[C@H](CC[C@@H]4[C@@]5(C)CCC(N)[C@@](C)(CO)[C@@H]5CC[C@]43C)[C@@H]12 (stereo not given in full)
HS 578T breast
  GI50: 1.65 µM
  TGI: 3.65 µM
MCF7 breast
  GI50: 1.53 µM
  TGI: 3.2 µM
MDA-MB-435
  GI50: 1.85 µM
  TGI: 3.46 µM
NCI/ADR-RES ovarian
  GI50: 2.6 µM
  TGI: 6.59 µM
PC-3 prostate
  GI50: 1.65 µM
  TGI: 3.1 µM

## COc1ccc(C[C@H]2NC[C@H](O)[C@H]2OC(C)=O)cc1
HS 578T breast
  TGI: 0.0604 µM
MCF7 breast
  TGI: 0.119 µM
MDA-MB-435
  TGI: 0.193 µM
NCI/ADR-RES ovarian
  TGI: 0.369 µM
PC-3 prostate
  TGI: 0.49 µM

## COC(=O)CCCNC(=O)C(=O)c1c(O)c(O)c(C(C)C)c2cc(C)c(-c3c(C)cc4c(C(C)C)c(O)c(O)c(C(=O)C(=O)NCCCC(=O)OC)c4c3O)c(O)c12
HS 578T breast
  GI50: 0.975 µM
  TGI: 11.6 µM
MCF7 breast
  GI50: 0.641 µM
  TGI: 4.71 µM
MDA-MB-435
  GI50: 1.06 µM
  TGI: 5.85 µM
NCI/ADR-RES ovarian
  GI50: 0.834 µM
  TGI: 16.6 µM
PC-3 prostate
  GI50: 0.258 µM
  TGI: 8.65 µM

## CCOC(=O)c1csc(-c2nc(CCNC(=O)c3ccccc3)sc2Cl)n1
HS 578T breast
  TGI: > 100 µM
MCF7 breast
  TGI: > 100 µM
MDA-MB-435
  TGI: > 100 µM
NCI/ADR-RES ovarian
  TGI: > 100 µM
PC-3 prostate
  TGI: > 100 µM

## NC(N)=NC(N)=Nc1ccc(S(N)(=O)=O)cc1
HS 578T breast
  TGI: > 100 µM
MCF7 breast
  TGI: > 100 µM
MDA-MB-435
  TGI: > 100 µM
NCI/ADR-RES ovarian
  TGI: > 100 µM
PC-3 prostate
  TGI: > 100 µM

## COc1ccc(-c2cc(-c3ccc(Cl)cc3)nc(SCCCCCCC(=O)NO)n2)cc1
HS 578T breast
  GI50: 1.81 µM
  TGI: > 50 µM
MCF7 breast
  GI50: 1.73 µM
  TGI: > 50 µM
MDA-MB-435
  GI50: 2.12 µM
  TGI: 11 µM
NCI/ADR-RES ovarian
  GI50: 0.876 µM
  TGI: 3.83 µM
PC-3 prostate
  GI50: 1.69 µM
  TGI: 12.7 µM

## CC(C)=CCc1c(O)c(C(=O)CC(C)C)c(O)c2c(-c3ccccc3)cc(=O)oc12
HS 578T breast
  GI50: 9.75 µM
  TGI: 49.9 µM
MCF7 breast
  GI50: 11.8 µM
  TGI: > 50 µM
MDA-MB-435
  GI50: 11.8 µM
  TGI: > 50 µM
NCI/ADR-RES ovarian
  GI50: 9.25 µM
  TGI: > 50 µM
PC-3 prostate
  GI50: 5.71 µM
  TGI: 39.8 µM

## Clc1ccc(COC(Cn2ccnc2)c2ccc(Cl)cc2Cl)c(Cl)c1 (stereo not given)
HS 578T breast
  GI50: 5.49 µM
  TGI: 24 µM and 32 µM
MCF7 breast
  GI50: 3.57 µM
  TGI: 12.4 µM and 27.8 µM and 33.3 µM
MDA-MB-435
  GI50: 2.39 µM
  TGI: 6.89 µM and 13 µM and 9.97 µM
NCI/ADR-RES ovarian
  GI50: 3.06 µM
  TGI: 13.3 µM and 25.2 µM and 16 µM
PC-3 prostate
  GI50: 3.07 µM
  TGI: 13.8 µM and 20.6 µM and 20.3 µM

## COc1cc(=O)oc(/C=C/C=C/C=C/C(C)=C\C2(C)OC(C)C(C)(O)C2O)c1C (stereo not given)
HS 578T breast
  TGI: > 100 µM
MCF7 breast
  TGI: > 100 µM
MDA-MB-435
  TGI: > 100 µM
NCI/ADR-RES ovarian
  TGI: > 100 µM
PC-3 prostate
  TGI: > 100 µM

## COC(=O)[C@H](Cc1cn(C)cn1)NC(=O)[C@@H](NC(=O)Nc1cc(C(F)(F)F)cc(C(F)(F)F)c1)C(C)(C)C
MCF7 breast
  GI50: > 10 µM
  TGI: > 10 µM
MDA-MB-435
  GI50: > 10 µM
  TGI: > 10 µM
NCI/ADR-RES ovarian
  GI50: > 10 µM
  TGI: > 10 µM
PC-3 prostate
  GI50: > 10 µM
  TGI: > 10 µM

## O=C1CCC(N2C(=O)c3cccc(NCCOCCOCCNC(=O)c4cc5c(o4)C(=O)c4ccccc4C5=O)c3C2=O)C(=O)N1 (stereo not given)
HS 578T breast
  GI50: 2.4 µM
  TGI: 7.76 µM
MCF7 breast
  GI50: 1.35 µM
  TGI: 3.54 µM
MDA-MB-435
  GI50: 1.23 µM
  TGI: 2.63 µM
NCI/ADR-RES ovarian
  GI50: 17.1 µM
  TGI: 62.1 µM
PC-3 prostate
  GI50: 2.42 µM
  TGI: 15.1 µM

## NC(Cc1c[nH]c2cc(F)ccc12)C(=O)O (stereo not given)
HS 578T breast
  GI50: 1780 µM
  TGI: > 2500 µM
MCF7 breast
  GI50: 1290 µM
  TGI: > 2500 µM
MDA-MB-435
  GI50: 840 µM
  TGI: > 2500 µM
NCI/ADR-RES ovarian
  GI50: 890 µM
  TGI: > 2500 µM
PC-3 prostate
  GI50: 1810 µM
  TGI: > 2500 µM

## COCC(=O)NC/C=C/c1ccc2ncnc(Nc3ccc(Oc4ccc(C)nc4)c(C)c3)c2c1
HS 578T breast
  GI50: 17.2 µM
  TGI: 56.1 µM
MCF7 breast
  GI50: 4.11 µM
  TGI: 32.5 µM
MDA-MB-435
  GI50: 11.4 µM
  TGI: 29.9 µM
NCI/ADR-RES ovarian
  GI50: 17.2 µM
  TGI: 88.8 µM
PC-3 prostate
  GI50: 15.5 µM
  TGI: > 83.1 µM

## N#CC(C(=O)O)C(c1c(Cl)cccc1Cl)C(C#N)C(=O)O (stereo not given)
HS 578T breast
  TGI: > 100 µM
MCF7 breast
  TGI: > 100 µM
MDA-MB-435
  TGI: > 100 µM
NCI/ADR-RES ovarian
  TGI: > 100 µM
PC-3 prostate
  TGI: > 100 µM

## COc1c(N2CCN(CN3C(=O)C(=O)c4ccccc43)C(C)C2)c(F)cc2c(=O)c(C(=O)O)cn(C3CC3)c12 (stereo not given)
HS 578T breast
  GI50: 91.2 µM
  TGI: > 100 µM
MCF7 breast
  GI50: 33.8 µM
  TGI: > 100 µM
MDA-MB-435
  GI50: 82.3 µM
  TGI: > 100 µM
NCI/ADR-RES ovarian
  GI50: > 100 µM
  TGI: > 100 µM
PC-3 prostate
  GI50: > 100 µM
  TGI: > 100 µM

## O=C1c2ccccc2-c2c1c1ccc([N+](=O)[O-])cc1c(=O)n2CCCn1ccnc1
HS 578T breast
  GI50: 0.605 µM
  TGI: 10.2 µM
MCF7 breast
  GI50: < 0.018 µM
  TGI: 4.24 µM
MDA-MB-435
  GI50: 1.55 µM
  TGI: 5.98 µM
NCI/ADR-RES ovarian
  GI50: 0.0465 µM
  TGI: 0.366 µM
PC-3 prostate
  GI50: 0.832 µM
  TGI: 14.3 µM
